Values joined by “and” are separate entries in the source; they are usually repeats but may differ in a detail not shown here. Equal entries are not always repeated.
What was measured:
[1] = biological target: EPHA2 (Homo sapiens, UniProt P29317); experiment: HotSpot kinase assay; conditions: read-out: % Enzyme Activity (relative to DMSO control), 10 uM
[2] = biological target: MEK5 (Homo sapiens, UniProt Q13163); experiment: HotSpot kinase assay; conditions: read-out: % Enzyme Activity (relative to DMSO control), 10 uM
Text: (§1) Additionally, a 10-dose dilution series of staurosporine and other enzyme-appropriate compounds were included as positive control inhibitors.

[3] = biological target: AMPK (A1/B2/G3) (Homo sapiens, UniProt Q13131); experiment: HotSpot kinase assay; conditions: read-out: % Enzyme Activity (relative to DMSO control), 10 uM
[4] = biological target: PYK2 (Homo sapiens, UniProt Q14289); experiment: HotSpot kinase assay; conditions: read-out: % Enzyme Activity (relative to DMSO control), 10 uM
Text: as §1

[5] = biological target: ERK2/MAPK1 (Homo sapiens, UniProt P28482); experiment: HotSpot kinase assay; conditions: read-out: % Enzyme Activity (relative to DMSO control), 10 uM
[6] = biological target: ALK3/BMPR1A (Homo sapiens, UniProt P36894); experiment: HotSpot kinase assay; conditions: read-out: % Enzyme Activity (relative to DMSO control), 10 uM
Text: as §1

[7] = test system: NF-κB reporter HEK-293 cells overexpressing ALPK1; experiment: NF-κB luciferase reporter
[8] = biological target: AKT3 (Homo sapiens, UniProt Q9Y243); experiment: HotSpot kinase assay; conditions: read-out: % Enzyme Activity (relative to DMSO control), 10 uM
[9] = biological target: STK25/YSK1 (Homo sapiens, UniProt O00506); experiment: HotSpot kinase assay; conditions: read-out: % Enzyme Activity (relative to DMSO control), 10 uM
Text: as §1

[10] = biological target: ULK1 (Homo sapiens, UniProt O75385); experiment: HotSpot kinase assay; conditions: read-out: % Enzyme Activity (relative to DMSO control), 10 uM
Text: as §1

[11] = biological target: NEK6 (Homo sapiens, UniProt Q9HC98); experiment: HotSpot kinase assay; conditions: read-out: % Enzyme Activity (relative to DMSO control), 10 uM
Text: as §1

[12] = biological target: CK1d (Homo sapiens, UniProt P48730); experiment: HotSpot kinase assay; conditions: read-out: % Enzyme Activity (relative to DMSO control), 10 uM
[13] = biological target: HPK1/MAP4K1 (Homo sapiens, UniProt Q92918); experiment: HotSpot kinase assay; conditions: read-out: % Enzyme Activity (relative to DMSO control), 10 uM
Text: as §1

[14] = biological target: SRPK2 (Homo sapiens, UniProt P78362); experiment: HotSpot kinase assay; conditions: read-out: % Enzyme Activity (relative to DMSO control), 10 uM
Text: as §1

[15] = biological target: PLK1 (Homo sapiens, UniProt P53350); experiment: HotSpot kinase assay; conditions: read-out: % Enzyme Activity (relative to DMSO control), 10 uM
[16] = biological target: CAMKK1 (Homo sapiens, UniProt Q8N5S9); experiment: HotSpot kinase assay; conditions: read-out: % Enzyme Activity (relative to DMSO control), 10 uM
Text: as §1

[17] = biological target: PIM1 (Homo sapiens, UniProt P11309); experiment: HotSpot kinase assay; conditions: read-out: % Enzyme Activity (relative to DMSO control), 10 uM
Text: as §1

[18] = biological target: PAK3 (Homo sapiens, UniProt O75914); experiment: HotSpot kinase assay; conditions: read-out: % Enzyme Activity (relative to DMSO control), 10 uM
Text: as §1

[19] = biological target: DYRK4 (Homo sapiens, UniProt Q9NR20); experiment: HotSpot kinase assay; conditions: read-out: % Enzyme Activity (relative to DMSO control), 10 uM
[20] = biological target: STK32C/YANK3 (Homo sapiens, UniProt Q86UX6); experiment: HotSpot kinase assay; conditions: read-out: % Enzyme Activity (relative to DMSO control), 10 uM
[21] = biological target: SYK (Homo sapiens, UniProt P43405); experiment: HotSpot kinase assay; conditions: read-out: % Enzyme Activity (relative to DMSO control), 10 uM
Text: as §1

[22] = biological target: CDK17/cyclin Y (PCTK2) (Homo sapiens, UniProt Q00537); experiment: HotSpot kinase assay; conditions: read-out: % Enzyme Activity (relative to DMSO control), 10 uM
Text: as §1

[23] = biological target: PDK2/PDHK2 (Homo sapiens, UniProt Q15119); experiment: HotSpot kinase assay; conditions: read-out: % Enzyme Activity (relative to DMSO control), 10 uM
[24] = biological target: MASTL (Homo sapiens, UniProt Q96GX5); experiment: HotSpot kinase assay; conditions: read-out: % Enzyme Activity (relative to DMSO control), 10 uM
Text: as §1

[25] = biological target: CDK16/cyclin Y (PCTAIRE) (Homo sapiens, UniProt Q00536); experiment: biochemical; conditions: read-out: % Enzyme Activity (relative to DMSO control), 10 uM
Text: as §1

[26] = biological target: PKCb2 (Homo sapiens, UniProt P05771); experiment: HotSpot kinase assay; conditions: read-out: % Enzyme Activity (relative to DMSO control), 10 uM
Text: as §1

[27] = biological target: MAPKAPK5/PRAK (Homo sapiens, UniProt Q8IW41); experiment: HotSpot kinase assay; conditions: read-out: % Enzyme Activity (relative to DMSO control), 10 uM
[28] = biological target: TNK1 (Homo sapiens, UniProt Q13470); experiment: HotSpot kinase assay; conditions: read-out: % Enzyme Activity (relative to DMSO control), 10 uM
Text: as §1

[29] = biological target: BRSK1 (Homo sapiens, UniProt Q8TDC3); experiment: HotSpot kinase assay; conditions: read-out: % Enzyme Activity (relative to DMSO control), 10 uM
Text: as §1

[30] = biological target: EPHA5 (Homo sapiens, UniProt P54756); experiment: HotSpot kinase assay; conditions: read-out: % Enzyme Activity (relative to DMSO control), 10 uM
Text: as §1

[31] = biological target: TLK1 (Homo sapiens, UniProt Q9UKI8); experiment: HotSpot kinase assay; conditions: read-out: % Enzyme Activity (relative to DMSO control), 10 uM
Text: as §1

[32] = biological target: YSK4/MAP3K19 (Homo sapiens, UniProt Q56UN5); experiment: HotSpot kinase assay; conditions: read-out: % Enzyme Activity (relative to DMSO control), 10 uM
Text: as §1

[33] = biological target: WEE1 (Homo sapiens, UniProt P30291); experiment: HotSpot kinase assay; conditions: read-out: % Enzyme Activity (relative to DMSO control), 10 uM
Text: as §1

[34] = biological target: TGFBR2 (Homo sapiens, UniProt P37173); experiment: HotSpot kinase assay; conditions: read-out: % Enzyme Activity (relative to DMSO control), 10 uM
Text: as §1

[35] = biological target: MLK4 (Homo sapiens, UniProt Q5TCX8); experiment: HotSpot kinase assay; conditions: read-out: % Enzyme Activity (relative to DMSO control), 10 uM
[36] = biological target: EPHB1 (Homo sapiens, UniProt P54762); experiment: HotSpot kinase assay; conditions: read-out: % Enzyme Activity (relative to DMSO control), 10 uM
Text: as §1

[37] = biological target: CDK7/cyclin H (Homo sapiens, UniProt P50613); experiment: HotSpot kinase assay; conditions: read-out: % Enzyme Activity (relative to DMSO control), 10 uM
Text: as §1

[38] = biological target: RIPK5 (Homo sapiens, UniProt Q6XUX3); experiment: HotSpot kinase assay; conditions: read-out: % Enzyme Activity (relative to DMSO control), 10 uM
Text: as §1

Sequence of ULK1 (O75385 whole entry): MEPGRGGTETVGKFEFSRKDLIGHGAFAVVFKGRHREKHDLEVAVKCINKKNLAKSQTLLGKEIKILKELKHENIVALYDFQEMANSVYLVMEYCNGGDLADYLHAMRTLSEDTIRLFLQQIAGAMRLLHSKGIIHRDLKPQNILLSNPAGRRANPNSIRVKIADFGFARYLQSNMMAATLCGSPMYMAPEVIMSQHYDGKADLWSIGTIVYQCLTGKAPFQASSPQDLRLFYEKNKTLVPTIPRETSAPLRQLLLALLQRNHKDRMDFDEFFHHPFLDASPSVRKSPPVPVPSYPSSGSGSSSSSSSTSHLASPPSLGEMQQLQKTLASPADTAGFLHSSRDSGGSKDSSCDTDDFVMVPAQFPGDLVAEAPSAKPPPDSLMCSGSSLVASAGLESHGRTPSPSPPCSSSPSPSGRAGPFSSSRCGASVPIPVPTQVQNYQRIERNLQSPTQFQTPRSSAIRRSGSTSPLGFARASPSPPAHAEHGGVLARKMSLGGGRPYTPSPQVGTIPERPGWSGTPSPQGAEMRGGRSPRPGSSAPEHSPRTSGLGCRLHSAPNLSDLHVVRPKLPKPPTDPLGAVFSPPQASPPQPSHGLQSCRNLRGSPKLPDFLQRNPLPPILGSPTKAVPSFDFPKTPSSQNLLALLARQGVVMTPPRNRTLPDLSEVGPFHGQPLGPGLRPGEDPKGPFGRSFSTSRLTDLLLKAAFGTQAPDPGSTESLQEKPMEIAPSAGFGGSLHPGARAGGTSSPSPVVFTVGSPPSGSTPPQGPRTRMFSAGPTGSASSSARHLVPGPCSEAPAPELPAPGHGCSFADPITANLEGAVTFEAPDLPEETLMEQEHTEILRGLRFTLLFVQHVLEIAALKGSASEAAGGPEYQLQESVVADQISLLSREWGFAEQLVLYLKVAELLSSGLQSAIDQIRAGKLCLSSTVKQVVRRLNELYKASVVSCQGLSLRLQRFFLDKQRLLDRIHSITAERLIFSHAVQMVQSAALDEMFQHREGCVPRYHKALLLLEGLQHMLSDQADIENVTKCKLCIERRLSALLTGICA
Sequence of SRPK2 (P78362 whole entry): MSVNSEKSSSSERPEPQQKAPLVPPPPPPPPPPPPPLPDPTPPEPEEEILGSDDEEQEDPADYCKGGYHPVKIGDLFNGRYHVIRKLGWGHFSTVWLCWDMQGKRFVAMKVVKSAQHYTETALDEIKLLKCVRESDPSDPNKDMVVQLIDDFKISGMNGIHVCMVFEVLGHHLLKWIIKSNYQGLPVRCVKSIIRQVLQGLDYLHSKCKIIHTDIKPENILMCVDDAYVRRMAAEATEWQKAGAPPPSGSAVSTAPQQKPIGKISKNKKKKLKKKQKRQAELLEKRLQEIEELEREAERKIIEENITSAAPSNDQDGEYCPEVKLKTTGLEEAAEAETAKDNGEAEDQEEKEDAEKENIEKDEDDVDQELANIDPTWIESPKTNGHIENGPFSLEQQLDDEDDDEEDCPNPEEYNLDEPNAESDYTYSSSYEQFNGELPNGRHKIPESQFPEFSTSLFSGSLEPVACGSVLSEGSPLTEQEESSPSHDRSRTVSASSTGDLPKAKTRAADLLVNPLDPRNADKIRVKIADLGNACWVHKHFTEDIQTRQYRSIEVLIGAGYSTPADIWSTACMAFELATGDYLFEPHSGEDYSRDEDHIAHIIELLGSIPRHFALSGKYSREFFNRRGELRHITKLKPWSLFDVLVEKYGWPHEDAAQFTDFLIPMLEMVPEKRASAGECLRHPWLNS
Sequence of WEE1 (P30291 whole entry): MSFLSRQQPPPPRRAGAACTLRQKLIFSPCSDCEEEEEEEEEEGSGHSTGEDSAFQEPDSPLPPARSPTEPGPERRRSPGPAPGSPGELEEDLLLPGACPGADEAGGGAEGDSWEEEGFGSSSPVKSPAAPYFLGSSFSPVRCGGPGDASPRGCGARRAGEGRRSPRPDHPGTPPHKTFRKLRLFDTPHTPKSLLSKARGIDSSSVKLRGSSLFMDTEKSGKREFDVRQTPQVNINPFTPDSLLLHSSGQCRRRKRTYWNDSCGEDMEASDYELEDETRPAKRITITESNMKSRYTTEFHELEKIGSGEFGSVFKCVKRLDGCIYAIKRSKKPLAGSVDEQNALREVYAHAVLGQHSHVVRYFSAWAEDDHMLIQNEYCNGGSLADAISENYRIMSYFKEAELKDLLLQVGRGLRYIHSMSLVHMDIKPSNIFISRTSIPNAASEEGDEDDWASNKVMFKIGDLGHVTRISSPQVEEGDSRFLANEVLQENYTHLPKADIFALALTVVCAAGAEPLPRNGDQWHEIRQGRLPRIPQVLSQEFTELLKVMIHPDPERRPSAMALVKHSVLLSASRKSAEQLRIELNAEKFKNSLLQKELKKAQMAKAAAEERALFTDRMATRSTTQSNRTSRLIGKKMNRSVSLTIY
Sequence of AKT3 (Q9Y243 whole entry): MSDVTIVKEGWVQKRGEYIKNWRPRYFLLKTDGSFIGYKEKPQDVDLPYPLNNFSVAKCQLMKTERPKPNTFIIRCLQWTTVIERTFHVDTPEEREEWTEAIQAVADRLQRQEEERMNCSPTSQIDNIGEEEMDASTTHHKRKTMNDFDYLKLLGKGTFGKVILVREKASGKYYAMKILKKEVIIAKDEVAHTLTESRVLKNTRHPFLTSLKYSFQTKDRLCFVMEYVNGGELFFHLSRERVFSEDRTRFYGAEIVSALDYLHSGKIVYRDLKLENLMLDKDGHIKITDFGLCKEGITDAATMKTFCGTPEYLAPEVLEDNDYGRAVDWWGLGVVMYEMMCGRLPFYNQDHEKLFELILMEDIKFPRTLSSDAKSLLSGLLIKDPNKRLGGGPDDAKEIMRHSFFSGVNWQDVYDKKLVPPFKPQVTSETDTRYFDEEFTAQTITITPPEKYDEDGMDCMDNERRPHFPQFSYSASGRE
Sequence of YSK4/MAP3K19 (Q56UN5 whole entry): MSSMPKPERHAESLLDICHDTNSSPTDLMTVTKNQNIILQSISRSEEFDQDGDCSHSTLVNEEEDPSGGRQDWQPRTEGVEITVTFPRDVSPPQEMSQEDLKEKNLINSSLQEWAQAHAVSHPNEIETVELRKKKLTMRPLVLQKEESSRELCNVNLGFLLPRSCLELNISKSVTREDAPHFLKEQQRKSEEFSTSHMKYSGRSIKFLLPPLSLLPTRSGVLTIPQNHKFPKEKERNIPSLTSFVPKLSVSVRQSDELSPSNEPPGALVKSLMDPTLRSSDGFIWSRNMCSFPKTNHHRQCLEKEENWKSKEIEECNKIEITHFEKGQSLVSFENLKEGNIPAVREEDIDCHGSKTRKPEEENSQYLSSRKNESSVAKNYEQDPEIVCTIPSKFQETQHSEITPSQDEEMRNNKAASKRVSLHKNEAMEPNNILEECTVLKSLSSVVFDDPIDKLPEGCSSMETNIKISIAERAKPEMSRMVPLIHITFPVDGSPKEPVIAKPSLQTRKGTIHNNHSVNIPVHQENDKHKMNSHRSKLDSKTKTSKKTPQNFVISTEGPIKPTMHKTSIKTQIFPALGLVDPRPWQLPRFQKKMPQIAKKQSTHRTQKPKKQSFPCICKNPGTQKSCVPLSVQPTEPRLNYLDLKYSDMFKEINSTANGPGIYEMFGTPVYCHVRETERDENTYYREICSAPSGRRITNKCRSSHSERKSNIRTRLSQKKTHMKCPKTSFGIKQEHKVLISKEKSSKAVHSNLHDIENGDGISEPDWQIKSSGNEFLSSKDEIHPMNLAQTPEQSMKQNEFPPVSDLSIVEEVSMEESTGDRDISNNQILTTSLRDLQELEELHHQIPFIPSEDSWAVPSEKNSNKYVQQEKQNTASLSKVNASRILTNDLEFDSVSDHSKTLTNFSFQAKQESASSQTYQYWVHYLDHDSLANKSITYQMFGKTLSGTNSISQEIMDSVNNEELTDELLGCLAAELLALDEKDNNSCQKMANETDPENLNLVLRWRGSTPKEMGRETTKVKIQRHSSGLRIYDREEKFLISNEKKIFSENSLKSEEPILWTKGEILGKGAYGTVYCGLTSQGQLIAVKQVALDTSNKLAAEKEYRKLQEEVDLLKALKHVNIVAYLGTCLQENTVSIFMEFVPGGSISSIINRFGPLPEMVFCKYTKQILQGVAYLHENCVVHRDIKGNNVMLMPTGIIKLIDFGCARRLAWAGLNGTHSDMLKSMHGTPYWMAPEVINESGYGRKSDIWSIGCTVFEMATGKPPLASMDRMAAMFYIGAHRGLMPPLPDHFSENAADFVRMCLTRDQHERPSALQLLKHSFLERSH
Sequence of PLK1 (P53350 whole entry): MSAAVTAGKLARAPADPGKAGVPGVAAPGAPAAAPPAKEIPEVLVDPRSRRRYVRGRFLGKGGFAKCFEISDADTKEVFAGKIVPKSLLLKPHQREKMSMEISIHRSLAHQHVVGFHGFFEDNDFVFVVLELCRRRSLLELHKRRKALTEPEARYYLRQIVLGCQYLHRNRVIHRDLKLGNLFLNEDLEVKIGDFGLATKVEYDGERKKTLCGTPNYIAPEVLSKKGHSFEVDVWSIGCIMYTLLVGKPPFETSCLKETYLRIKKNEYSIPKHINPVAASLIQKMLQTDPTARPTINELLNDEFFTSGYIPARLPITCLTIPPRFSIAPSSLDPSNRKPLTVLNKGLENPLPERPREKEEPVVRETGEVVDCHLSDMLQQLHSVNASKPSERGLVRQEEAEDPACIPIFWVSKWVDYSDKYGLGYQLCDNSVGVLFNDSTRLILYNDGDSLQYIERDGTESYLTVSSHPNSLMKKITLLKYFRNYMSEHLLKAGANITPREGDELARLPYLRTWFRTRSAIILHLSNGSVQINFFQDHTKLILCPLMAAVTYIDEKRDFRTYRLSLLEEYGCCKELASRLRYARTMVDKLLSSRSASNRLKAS

C#C[C@@](C)(c1ccc(Cl)cc1)c1csc(NC(=O)c2c(F)cc(N3CCNCC3)cc2F)n1 (stereo in doubt) [DF-003] showed a remaining activity at 10 µM [1] of 114%, a remaining activity at 10 µM [2] of 109% and a remaining activity at 10 µM [3] of 82.6%. For the same molecule, the remaining activity at 10 µM [4] was 129%, the remaining activity at 10 µM [5] was 91.9% and the remaining activity at 10 µM [6] was 103%. For the same molecule, the Luciferase signal ([7]; OE ALPK1, DF-003 3.174 nM) was 1.097 and 1.020 and 1.022, the Luciferase signal ([7]; OE ALPK1, DF-003 10.029 nM) was 0.986 and 1.052 and 0.781 and the Luciferase signal ([7]; OE ALPK1, DF-003 31.691 nM) was 1.122 and 1.009 and 1.070. The Luciferase signal ([7]; OE ALPK1, DF-003 100.144 nM) was 1.037 and 1.150 and 1.192, the Luciferase signal ([7]; OE ALPK1, DF-003 316.456 nM) was 1.532 and 0.863 and 1.106 and the Luciferase signal ([7]; OE ALPK1, DF-003 1000.000 nM) was 1.282 and 1.245 and 1.248. The Luciferase signal ([7]; OE ALPK1, DF-003 3160.000 nM) was 0.913 and 0.816 and 0.878, the Luciferase signal ([7]; OE ALPK1, DF-003 10000.000 nM) was 1.096 and 0.857 and 1.177 and the remaining activity at 10 µM [8] was 83.1%. The remaining activity at 10 µM [9] was 82.9%, the remaining activity at 10 µM [10] was 56.8% and the remaining activity at 10 µM [11] was 88.5%. The remaining activity at 10 µM [12] was 81.5%, the remaining activity at 10 µM [13] was 83.3% and the remaining activity at 10 µM [14] was 126%. For the same molecule, the remaining activity at 10 µM [15] was 114%, the remaining activity at 10 µM [16] was 92.8% and the remaining activity at 10 µM [17] was 74%. The remaining activity at 10 µM [18] was 117%, the remaining activity at 10 µM [19] was 104% and the remaining activity at 10 µM [20] was 114%. It also gave a remaining activity at 10 µM [21] of 78.8%, a remaining activity at 10 µM [22] of 82.4% and a remaining activity at 10 µM [23] of 85.3%. The remaining activity at 10 µM [24] was 90.6%, the remaining activity at 10 µM [25] was 91.8% and the remaining activity at 10 µM [26] was 85.2%. For the same molecule, the remaining activity at 10 µM [27] was 93%, the remaining activity at 10 µM [28] was 100% and the remaining activity at 10 µM [29] was 116%. The remaining activity at 10 µM [30] was 95.5%, the remaining activity at 10 µM [31] was 96.5% and the remaining activity at 10 µM [32] was 100%. For the same molecule, the remaining activity at 10 µM [33] was 125%, the remaining activity at 10 µM [34] was 91.5% and the remaining activity at 10 µM [35] was 85.8%. It also gave a remaining activity at 10 µM [36] of 80.8%, a remaining activity at 10 µM [37] of 102% and a remaining activity at 10 µM [38] of 82%.
